These are literature values, as cited in patent US20140107053A1, “APPLES WITH HIGH POLYPHENOLIC CONTENT” (CORESSENCE LIMITED, priority 2006, published 2014).

The conditions of data set [1]: indicated by Tmax values in human studies.
For data set [2] the following is noted: compared to (−)-epicatechin monomers (Shoji et al. 2006).

As to `Oc1cc(O)c2c(c1)O[C@H](c1ccc(O)c(O)c1)[C@H](O)[C@H]2c1c(O)cc(O)c2c1O[C@H](c1ccc(O)c(O)c1)[C@@H](O)C2` [Apple B1, epicatechin-(4β-8)-catechin], the “detection in human plasma” value is reported as “detected at low levels”.
Take `Oc1cc(O)c2c(c1)O[C@H](c1ccc(O)c(O)c1)[C@H](O)[C@H]2c1c(O)cc(O)c2c1O[C@H](c1ccc(O)c(O)c1)[C@H](O)C2` [Apple B2, epicatechin-(4β-8)-epicatechin]: the “detection in human plasma” value is on record as “detected at low levels”.
On to `Oc1cc(O)c2c(c1)O[C@H](c1ccc(O)c(O)c1)[C@H](O)[C@H]2c1c(O)cc2c(c1O)C[C@@H](O)[C@@H](c1ccc(O)c(O)c1)O2` [Apple B5, epicatechin-(4β-6)-epicatechin], for which the detection in plasma result (after chocolate consumption (Holt et al. 2002)) is listed as “could not be detected”.
On to `O.Oc1cc(O)c2c(c1)O[C@H](c1ccc(O)c(O)c1)[C@@H](O)C2` [catechin], for which, in data set [1], the site of absorption entry is on record as “absorbed mainly in the small intestine”. Besides, the bioavailability entry in data set [2] is on record as “relatively low bioavailability”.
With epicatechin, the site of absorption result in data set [1] is reported as “absorbed mainly in the small intestine”.
